Measured values taken from patent US11376252B2, “Multikinase inhibitors and uses in prostatic hyperplasia and urinary track diseases” (AIVIVA BIOPHARMA, INC., priority 2017, dated 2022).
“Also recorded” adds a separate entry of the source. Where a name gives a salt, the structure may show the parent alone.

Tests used:
[1] = system: testosterone and/or phenylephrine induced BPH in rats; test: Post-induction study in testosterone and/or phenylephrine induced BPH in rats, intra-prostate injection (Example 2); format: in vivo, Male Wistar rats; conditions: for epithelial hyperplasia score (0 not present through 5 severe), representative image: dorsolateral prostate, FIG. 6; for mean prostate weight/100 g body weight compared to vehicle: TE+PE induced days 1-28
Experimental: Morphologically, BPH is characterized by the formation of a new architecture through the proliferation of the epithelium in pre-existing ducts. Given that stromal cells serve important paracrine regulatory functions in epithelial cell homeostasis, late stage changes in stromal-epithelial interactions could provide insight into BPH progression. A second study was conducted to determine the therapeutic effects of test compounds and vehicle, post-induction in a protocol using testosterone and/or phenylephrine induced BPH in rats.
Male Wistar rats were induced with testosterone (2 mg/kg) plus phenylephrine (5 mg/kg) administered daily by subcutaneous injection on days 1 through 28. Vehicle or test compounds sorafenib (1% w/w), pirfenidone (2.5% w/w), and riociguat (1% w/w) were administered by intra-prostate injection (0.2 ml) in the dorsolateral lobe on days 15 and 29. Animals were euthanized on day 42. Body weights were determined. Prostate glands were harvested and weighed. The experimental design is outlined in Table 2.
At necropsy, the dorsolateral and ventral lobes of the prostate were separated and cut into halves. The left halves were fixed in 10% neutral buffered formalin, sectioned, and stained with Hematoxylin and Eosin (H&E). Epithelial hyperplasia was recognized as an increase in epithelial cells within normal appearing gland profiles, as reflected in the stratification of epithelial cells and increased presence of epithelial tufting and papillary projections. Stromal changes were examined microscopically. These changes included inflammation and tissue fibroplasia. Each section was given a severity score ranging from 0 (not present) through 5 (severe).

[2] = system: suture induced fibrosis model in rabbits; test: Suture induced fibrosis model in rabbits (cornea), topical administration (Example 4); format: in vivo; conditions: 0.3% w/w topical, three times daily for 10 days, Day 11; for fibroplasia and/or collagen density (histological staining, Masson's trichrome): FIG. 8
Experimental: A study was conducted to determine the potential beneficial effects of topical administration of test compounds and vehicle in a suture induced fibrosis model in rabbits. Sutures were placed intrastromally, under a microscope, in the cornea of rabbits. In each eye, one 9-0 silk suture was placed, in a vertical position, temporal to the center of the cornea and a second suture was placed nasal to the corneal center. Each suture had two stromal incursions approximately 2 mm from the limbus. Test compounds having a certain spectrum of multikinase inhibition activities, or vehicle, were topically instilled (35 μL/eye) in the eyes three times daily for 10 days following surgery. The treatment groups include vehicle, nintedanib (0.3%, w/w), sorafenib (0.3%, w/w) and lenvatinib (0.3%, w/w). Six left eyes were used per treatment group.
During the in-life phase, gross ocular observations of very slight to moderate conjunctival congestion and swelling were similar among groups, including the vehicle control. The animals were sacrificed on Day 11 and eyes enucleated and dissected for histopathological evaluation.

[3] = system: testosterone (TE) and phenylephrine (PE) induced benign prostate hyperplasia in rats; test: Testosterone (TE) and phenylephrine (PE) induced benign prostate hyperplasia in rats, intra-prostate injection (Example 1); format: in vivo, Male Wistar rats; conditions: for glandular hyperplasia as compared to the untreated TE/PE induced prostates: TE/PE induced rats, intra-prostate injection, histology
Experimental: BPH is a true hyperplastic process. Histologic studies have documented an increase in cell number. A study was conducted, therefore, to determine the effects of test compounds and vehicle on testosterone (TE) and phenylephrine (PE) induced benign prostate hyperplasia in rats. Male Wistar rats were induced with testosterone (2 mg/kg) plus phenylephrine (5 mg/kg) administered daily by subcutaneous injection on days 5 through 32. Vehicle or test compounds (all at 1% w/w), nintedanib, sunitinib, lenvatinib, and 0.5% doxazosin mesylate, were administered by intra-prostate injection (0.4 ml) in dorsolateral and ventral lobes on days 1 and 18. Animals were euthanized on day 32. Body weights were determined and prostate glands were harvested. The experimental design is outlined in Table 1.
At necropsy, the ventral and dorsolateral lobes of the prostate were separated and then cut into halves. The left halves were fixed in 10% neutral buffered formalin, sectioned, and stained with Hematoxylin and Eosin (H&E). Histological changes in these sections were scored. Epithelial hyperplasia was recognized as an increase in epithelial cells within normal-appearing gland profiles, primarily reflected by stratification of epithelial cells and increased presence of epithelial tufting and papillary projections. A severity grade of 0 (not present) through 5 (severe) was assigned to each sample.

[4] = system: laser induced choroidal neovascularization; test: Laser induced choroidal neovascularization in rat eyes (Example 5); format: in vivo; conditions: Day 22, FIG. 9; for lesion sizes relative to vehicle (fluorescein angiography): topical eyedrop 1%, three times a day Days 2-21
From the text: Increased expression of angiogenic factors, such as VEGF and bFGF, along with increased microvessel density, have been reported in benign prostatic hyperplasia, high grade prostate intraepithelial neoplasia and prostate cancer. […] In this example, the effect of local administration of multikinase inhibitors in a rat model of neovascularization was examined. New vessel growth is regulated by growth factor receptor signaling pathways, the functions of which broadly overlap among organs and tissues. In this study, effects of local administration of the multikinase inhibitors nintedanib and lenvatinib were examined by intravitreal injection or topical application to rat eyes following laser induced choroidal neovascularization. A 22-day study was conducted to determine the effects of test agents, positive control, or vehicle on the development of new vessels. On Day 1, laser treatments were performed on all animals using a 520 nm thermal laser to generate a total of three lesions per eye. On Days 2-21, bilateral topical administration of vehicle, 1% nintedanib, or 1% lenvatinib was performed three times a day. On Day 3, bilateral intravitreal injection of vehicle, 5 μg/eye of rat anti-VEGF antibody, 50 μg/eye of nintedanib, or 50 μg/eye of lenvatinib was performed in a second group of animals. On Day 22, fluorescein angiography was performed on all animals and lesion size/area was determined using image analysis software (ImageJ).

[5] = intra-prostate injection days 15 and 29, day 42, FIG. 5
[6] = TE+PE induced, intra-prostate injection days 15 and 29, day 42
[7] = dorsolateral prostate, TE and PE induced, intra-prostate injection days 1 and 18, 1% w/w (doxazosin 0.5%), day 32, H&E, FIG. 1
[8] = ventral prostate, TE and PE induced, intra-prostate injection days 1 and 18, 1% w/w (doxazosin 0.5%), day 32, H&E, FIG. 2
[9] = intravitreal injection 50 μg/eye on Day 3

Compound | alpha SMA staining by immunohistochemical analysis relative to vehicle [2] | fibroplasia and/or collagen density (histological staining, Masson's trichrome) [2] | glandular hyperplasia as compared to the untreated TE/PE induced prostates [3] | epithelial hyperplasia score (severity grade 0 not present through 5 severe), representative image [3, 7] | epithelial hyperplasia score (severity grade 0 not present through 5 severe), representative image [3, 8] | other results
COC(=O)N(C)c1c(N)nc(-c2nn(Cc3ccccc3F)c3ncccc23)nc1N [riociguat] |  |  |  |  |  | effect on prostate volume and histological changes in epithelial hyperplasia ([1]; TE induced rats, 1% w/w intra-prostate): showed an effect on prostate volume and histological changes in epithelial hyperplasia; mean prostate weight/100 g body weight compared to vehicle control ([1]; TE induction days 1-28, intra-prostate injection days 15 and 29, day 42, FIG. 5): reduced the mean prostate weight; epithelial hyperplasia score (0 not present through 5 severe), representative image ([1]; TE induced, intra-prostate injection days 15 and 29, day 42): 1
CNC(=O)c1cc(Oc2ccc(NC(=O)Nc3ccc(Cl)c(C(F)(F)F)c3)cc2)ccn1 [sorafenib] | no effect on alpha SMA | little or no effect |  |  |  | mean prostate weight/100 g body weight compared to vehicle [1, 5]: did not show a reduction in mean prostate weight; inhibition of benign prostate hyperplasia / therapeutic effect in the prostate ([1]; TE+PE induced rats, 1% w/w intra-prostate): not an effective inhibitor; also recorded: did not show any therapeutic effect; epithelial hyperplasia score (0 not present through 5 severe), representative image [1, 6]: 2
COc1cc2nc(N3CCN(C(=O)C4COc5ccccc5O4)CC3)nc(N)c2cc1OC (stereo not drawn) [doxazosin, doxazosin mesylate] |  |  | demonstrated reduction of glandular hyperplasia | 3 | 3 | 
COc1cc2nccc(Oc3ccc(NC(=O)NC4CC4)c(Cl)c3)c2cc1C(N)=O [lenvatinib] | significantly reduced alpha SMA staining | significantly reduced fibroplasia and/or collagen density | demonstrated reduction of glandular hyperplasia | 2 | 3 | lesion sizes relative to vehicle-treated eyes (fluorescein angiography) [4, 9]: significantly reduced lesion sizes; lesion sizes relative to positive control, rat anti-VEGF (fluorescein angiography) ([4]; intravitreal injection 50 μg/eye on Day 3, anti-VEGF 5 μg/eye): significantly reduced lesion sizes; lesion sizes relative to vehicle (fluorescein angiography) [4]: reduced lesion sizes
COC(=O)c1ccc2c(c1)NC(=O)/C2=C(\Nc1ccc(N(C)C(=O)CN2CCN(C)CC2)cc1)c1ccccc1 [nintedanib] | significantly reduced alpha SMA staining | significantly reduced fibroplasia and/or collagen density | demonstrated reduction of glandular hyperplasia | 3 | 3 | lesion sizes relative to vehicle-treated eyes (fluorescein angiography) [4, 9]: significantly reduced lesion sizes; lesion sizes relative to vehicle (fluorescein angiography) [4]: reduced lesion sizes
CCN(CC)CCNC(=O)c1c(C)[nH]c(/C=C2\C(=O)Nc3ccc(F)cc32)c1C [sunitinib] |  |  |  | 3 |  | epithelial hyperplasia score (severity grade 0 not present through 5 severe), representative image ([3]; 768 h): 3
Cc1ccc(=O)n(-c2ccccc2)c1 [pirfenidone] |  |  |  |  |  | mean prostate weight/100 g body weight compared to vehicle [1, 5]: did not show a reduction in mean prostate weight; epithelial hyperplasia score (0 not present through 5 severe), representative image [1, 6]: 1
